From publication PMC11997890, “In Vivo and In Vitro Pharmacokinetic Studies of a Dual Topoisomerase I/II Inhibitor” (ACS Pharmacology & Translational Science, 2025) come the findings set out here.

Structures are written as SMILES.

For one data set, the system named is OvCar8 spheroids. The experiment in a line: 3D spheroid cytotoxicity (CellTox Green). To be noted: Homo sapiens, OVCAR-8, 48 h, OvCar8 3D spheroids, read-out: IC50 cell toxicity (CellTox Green). Type of data set: cell-based. As to the method: Tumor complexity is represented more realistically in 3D spheroid models than in 2D monolayer models.
OvCar8 cells (8000/well) were seeded into an Ultra-Low-Attachment plate (Corning #4520) and grown for 96 h. Then, spheroids were treated with the drugs for 48 h. Cell cytotoxicity was assessed using the CellTox Green Cytotoxicity Assay (Promega #G8731) 48 h after treatment with NYONE ([…], 485Ex/520Em). Filters: BFEx/GreenEm (530/43 nm); BlueEx (475/28 nm)/GreenEm (530/43 nm). Viability and apoptosis were determined by RealTime-Glo (460Em) (Promega #G9711) and caspase-Glo 3/7 (565Em) (Promega #G8090) according to the manufacturer’s instructions using a microplate reader (Spark, Tecan). Relative caspase activity: caspase activity divided by the viability (normalized to control). For live-dead staining, cells were grown and treated as described above. Then, 80% of the medium was removed and replaced with propidium iodide (PI) (15 μM), calcein-AM (0.2 μM), and Hoechst 33342 (1.8 μM) in medium for 3 h and imaged by NYONE ([…]). Filters: BFEx/GreenEm(530/43 nm); Hoechst 33342: UVEx (377/50 nm)/BlueEm (452/45 nm); calcein-AM: BlueEx (475/28 nm)/GreenEm (530/43 nm); propidium iodide: LimeEx(562/40 nm)/RedEm(628/32 nm). All experiments were performed in biological triplicates. PBS was used as the negative control, and cisplatin and P8-D6 as the positive control.

Data set [1] can be described thus: In vivo elimination via urine and feces over 24 h. Set-up: species or system Sprague–Dawley rats. Conditions: for P8-D6 (plus glucuronide) exceeds metabolite in feces: 24 h cumulative. As for the experimental part:
To investigate the elimination of P8-D6 and its phase I and phase II metabolites, urine and feces samples were collected over the course of 24 h and examined.
To examine possible in vivo phase II metabolites, an enzymatic hydrolysis with glucuronidase/sulfatase from Helix pomatia was performed with both urine and feces samples. […] No sulfate phase II metabolites were observed.
Effects of the diet were reduced by fasting the rats overnight prior to P8-D6 application. Blood samples were taken at 5, 15, 30, 60, 120, 180, 300, 360, and 600 min after i.v. application or 30, 60, 90, 120, 240, and 600 min after p.o. application. Immediately afterward, the plasma was collected by centrifugation at 2000 g for 10 min. The rats were housed in metabolic cages to collect the urine in specially attached containers. Urine and feces samples were collected every 2 h. The rats were euthanized by CO2 inhalation. The harvested organs (kidney, spleen, lung, liver, and colon) were weighed and submerged in liquid nitrogen. All collected samples were stored at −80 °C until analysis.
Thirty mg of feces was added to 100 μL of a 0.15 M NaCl solution and stirred in the vortex for 30 s. Afterward, 200 μL of an ice-cold mixture of acetonitrile/methanol (2:1) was added before vortexing again for 30 s. Finally, the suspension was centrifuged at 15000 g for 5 min. 40 μL of the supernatant was injected into the HPLC. The samples from three mice per group were analyzed. Calibration/control samples were prepared the same way with fecal samples collected ahead of the in vivo study. For calibration, the matrix was spiked with a defined concentration of the analyte. Final concentrations ranged from 0 nmol/g to 200 nmol/g. Triple determinations were performed and prepared on each respective day. 50 μL of urine was mixed with 100 μL of an ice-cold mixture of acetonitrile/methanol (2:1) and stirred in the vortex for 5 min. The suspension was centrifuged at 15000 g for 5 min, and 40 μL of the supernatant was injected into the HPLC. Calibration/control samples were prepared the same way with urine samples collected ahead of the in vivo study. For calibration, the matrix was spiked with a defined concentration of the analyte. Final concentrations ranged from 0 to 10 μM. Triple determinations were performed and prepared on each respective day. LoD: 0.02 μM (urine), 0.22 nmol/g (feces); LoQ: 0.06 μM (urine), 0.72 nmol/g (feces). Additionally, to identify phase II metabolites, feces (30 mg) and urine (50 μL) from the in vivo study were incubated with arylsulfatase (at pH 6.2) and glucuronidase (at pH 4.5) from Helix pomatia in acetate buffer for 2 h in a 37 °C water bath. For reference, feces and urine without enzyme and 4-nitrophenylsulfate and 4-nitrophenylglucuronide were incubated as well. All experiments were performed in biological triplicates.

On to `CNCCOc1nc2c3cnccc3cc(-c3cc(OC)c(OC)c(OC)c3)c2c2ccncc12` [P8-D6 mono], for which the IC50 in the data set on OvCar8 spheroids is 2220 nM. In data set [1], the “P8-D6 (plus glucuronide) exceeds metabolite in feces” value turned out to be 3.7 fold.
On to `COc1cc(-c2cc3ccncc3c3nc(OCC[N+](C)(C)[O-])c4cnccc4c23)cc(OC)c1OC` [P8-D6 N-oxide], for which the “P8-D6 (plus glucuronide) exceeds metabolite in feces” value in data set [1] turned out to be 31 fold. In addition, the concentration in feces in data set [1] (after 2 h) stood at 2.90 nmol/g. Moreover, the “detectable in feces up to” value in data set [1] (rat, in vivo) is given as “up to 8 h”.
Turning to `COc1cc(-c2cc3ccncc3c3[nH]c(=O)c4cnccc4c23)cc(OC)c1OC` [P8-DO], in data set [1] (24 h), the “detection in urine and feces” value is “absent”.
As to `COc1cc(-c2cc3ccncc3c3nc(OCCN(C)C)c4cnccc4c23)cc(OC)c1OC` [P8-D6, 6-(N,N-dimethyl-2-aminoethoxy)-11-(3,4,5-trimethoxyphenyl)-pyrido[3,4-c][1,9]-phenanthroline], the IC50 with OvCar8 spheroids turned out to be 1110 nM.

The IC50 is the concentration that gives 50% inhibition.
